Patent US10399931B2, “Octahydroanthracene compound, preparation method and application thereof” (SHANDONG XINHUA PHARMACEUTICAL CO., LTD., priority 2016, dated 2019)
Like-named read-outs stand apart in the source and are kept apart here.

Tests used:
[1] = system: Human cutaneous T-cell lymphoma Hut102 cells; test: MTT assay, proliferation of human cutaneous T-cell lymphoma Hut102 cells; type: cell-based
Protocol: (§1) The survival rate of cells was determined by MTT assay, which is based on the metabolic reduction of 3-(4,5-dimethyl-2thiahiazoyl)-3,5-di-phenyl-tetrazolium bromide (MTT) by viable cells. MTT is a yellow compound, a dye that accepts hydrogen ion, which can act on the respiratory chain in the mitochondria of viable cells. Under the action of succinate dehydrogenase and cytochrome C, the tetrazolium ring was cleaved to form blue Formazan crystals, and the amount of Formazan crystals generated was only proportional to the number of the viable cells. The enzymes disappeared in dead cells, so Formazan crystals could not be dissolved in MTT solution containing 20% sodium dodecyl sulfate (pH 4.7).
(§2) The cells in the logarithmic growth phase were selected and adjusted to an appropriate cell density, seeded in a 96-well plate, 100 μl/well, and cultured in a 37° C., 5% CO2 incubator. The cells were allowed to adhere overnight, then the culture medium was replaced and the drug was added to cultivate for 48 h. A blank control group, a drug administration group and a positive control group were set, with four repeats in each group.
(§3) After 48 h of drug treatment, the cells were incubated with 0.25 mg/ml MTT at 37° C. for 3-4 h, and 100 μl of dimethyl sulfoxide (DMSO) was added to each well after aspirating the culture solution.

[2] = system: Human leukemia HL60 cells; test: MTT assay, proliferation of human leukemia HL60 cells; type: cell-based; details: Homo sapiens
Protocol: as §1, §2, §3

APP/PS1 transgenic mice [3] = test: Nesting experiment; type: in vivo; details: at 12 h
Description: Each mouse was separately housed in a cage. On the first day of the test, two pieces of cotton (5 cm×5 cm) were placed in the cage. […]

APP/PS1 transgenic mice [4] = test: Morris water maze test (oriented navigation and probe test); type: in vivo; details: 100 mg/kg
Protocol: The drugs were administered three days after the adaptive feeding. Peanut oil was used as the solvent. The drug was intragastric administered once a day for 15 days. On the 6th to 9th day after the administration, the new object identification test was performed. On the 10th day, the Y-maze test was performed. On the 11th to 15th day, the Morris water maze test was performed to determine the improvement of learning and memory. The administration of the drugs was continued during the behavioral experiment until the animals were sacrificed (16th day).
The experimental device includes a black circular pool with a diameter of 100 cm and a height of 40 cm, and a white platform (safe platform) having a diameter of about 10 cm. The location of the safe platform could be moved. Morris Water Maze Video Detection and Analysis System was provided by the Institute of Materia Medica, China Academy of Medical Sciences. One day before the experiment, water was injected into the black circular pool (water temperature 22±1° C.), and white pigment was added to mix uniformly. The water surface was usually about 1 cm higher than the top of the safe platform. The pool was divided into four quadrants I, II, III and IV, and the safe platform was usually placed in the middle of the quadrant IV. The experiment was divided into two parts: (1) Oriented navigation: the animal grouping was input into a computer software in advance. The position of the safe platform was kept unchanged during the experiment. During the test, the experimental animal facing the pool wall was placed in the water from different inlets, and the computer simultaneously collected data and recorded the time to find the safe platform (escape latency). Data collection automatically stopped when the animal stayed on the safe platform for 10 s. The data acquisition time of the mouse was 60 s. If the animal could not find the safe platform within the specified time, the escape latency was recorded as 60 s. At the same time, the operator induced the animal to reach the safe platform and stay for 10 s. The animal was trained twice a day for 4 consecutive days. (2) Probe test: after the oriented navigation test is completed, the safe platform is removed and the animal was placed in the pool free to explore for 60 s. The camera system automatically recorded the time and distance of the experimental animal swimming in the quadrant of the safe platform within the specified time and the number of times passing through the location of the safe platform.

[5] = HuT-102, 10 μM, Mean ± SE, read-out: Inhibitive rate (%) against Hut102 cells
[6] = HL-60, 48 h, 10 μM, 48 h, Mean ± SE, read-out: Inhibitive rate (%) against HL60 cells
[7] = HuT-102, read-out: Inhibitive rate (%) against Hut102 cells
[8] = HL-60, 48 h, read-out: Inhibitive rate (%) against HL60 cells
[9] = HL-60, read-out: Inhibitive rate (%) against HL60 cells

## CC1(C)CCC(C)(C)c2c1cc1c(c2NC(=O)c2ccc(NC(=O)N3CCC(C(=O)O)CC3)cc2)C(C)(C)CCC1(C)C [OAB-9, N-{4-[(1,1,4,4,5,5,8,8-octamethyl-1,2,3,4,5,6,7,8-octahydro-9-anthryl)carbamoyl]phenylcarbamoyl}-4-piperidinyl Formic Acid]
[1]; [5]
  inhibition at 10 µM: -0.3 ± 1.13%
[2]; [6]
  inhibition at 10 µM: 8.03 ± 1.07%

## COC(=O)Nc1ccc(C(=O)Nc2c3c(cc4c2C(C)(C)CCC4(C)C)C(C)(C)CCC3(C)C)cc1 [OAB-8, 4-[(1,1,4,4,5,5,8,8-octamethyl-1,2,3,4,5,6,7,8-octahydro-9-anthryl)carbamoyl] methyl Phenylcarbamate]
[1]; [5]
  inhibition at 10 µM: -1.05 ± 3.08%
[2]; [6]
  inhibition at 10 µM: 7.24 ± 4.74%

## CC1(C)CCC(C)(C)c2c1cc1c(c2NC(=O)c2ccc(C(=O)NO)cc2)C(C)(C)CCC1(C)C [OAA3, N-hydroxy-4-[(1,1,4,4,5,5,8,8-octamethyl-1,2,3,4,5,6,7,8-octahydro-9-anthryl)carbamoyl] benzamide]
[1]; [5]
  inhibition at 10 µM: 11.3 ± 0.46%
[2]; [6]
  inhibition at 10 µM: 4.79 ± 6.65%

## CC1(C)CCC(C)(C)c2c1cc1c(c2NC(=O)c2ccc(N)cc2)C(C)(C)CCC1(C)C [OAB-1, 4[(1,1,4,4,5,5,8,8-octamethyl-1,2,3,4,5,6,7,8-octahydro-9-anthryl)carbamoyl] aniline]
[1]; [5]
  inhibition at 10 µM: 5.43 ± 2.54%
[2]; [6]
  inhibition at 10 µM: 5.95 ± 2.98%

## CC1(C)CCC(C)(C)c2c1cc1c(c2NC(=O)c2ccc(N(S(C)(=O)=O)S(C)(=O)=O)cc2)C(C)(C)CCC1(C)C [OAB-5, N,N-dimethylsulfonyl-4-[(1,1,4,4,5,5,8,8-octamethyl-1,2,3,4,5,6,7,8-octahydro-9-anthryl)carbamoyl] aniline]
[1]; [5]
  inhibition at 10 µM: 29.1 ± 1.39%
[2]; [6]
  inhibition at 10 µM: 42.3 ± 1.05%

## CC1(C)CCC(C)(C)c2c1cc1c(c2NC(=O)c2ccc(C(=O)Nc3ccccc3N)cc2)C(C)(C)CCC1(C)C [OAA-4, N-(2-aminophenyl)-4-[(1,1,4,4,5,5,8,8-octamethyl-1,2,3,4,5,6,7,8-octahydro-9-anthryl)carbamoyl] benzamide]
[1]; [5]
  inhibition at 10 µM: 30.3 ± 0.7%
[2]; [6]
  inhibition at 10 µM: 12.5 ± 1.32%

## CN(C)CCNC(=O)c1ccc(C(=O)Nc2c3c(cc4c2C(C)(C)CCC4(C)C)C(C)(C)CCC3(C)C)cc1 [OAA-7, N-[2-(N,N-dimethylamino)]ethyl-4-[(1,1,4,4,5,5,8,8-octamethyl-1,2,3,4,5,6,7,8-octahydro-9-anthryl)carbamoyl] benzamide]
[1]; [5]
  inhibition at 10 µM: 8.34 ± 4.37%
[2]; [6]
  inhibition at 10 µM: 10.8 ± 0.69%

## COc1cc2c(cc1OC)C(=O)C(CC1CCN(Cc3ccccc3)CC1)C2 (centres unmarked) [donepezil, reference compound]
APP/PS1 transgenic mice [3]
  Nesting ability vs model group: significantly increased

## CCOC(=O)Nc1ccc(C(=O)Nc2c3c(cc4c2C(C)(C)CCC4(C)C)C(C)(C)CCC3(C)C)cc1 [OAB-2, 4-[(1,1,4,4,5,5,8,8-octamethyl-1,2,3,4,5,6,7,8-octahydro-9-anthryl)carbamoyl] ethyl phenylcarbamate]
[1]; [7]
  inhibition at 10 µM: 6.58 ± 1.51%
[2]; [8]
  inhibition at 10 µM: 4.51 ± 1.8%

## CCN(CC)CCNC(=O)c1ccc(C(=O)Nc2c3c(cc4c2C(C)(C)CCC4(C)C)C(C)(C)CCC3(C)C)cc1 [OAA-5, N-[2-(N,N-diethylamino)]ethyl-4-[(1,1,4,4,5,5,8,8-octamethyl-1,2,3,4,5,6,7,8-octahydro-9-anthryl)carbamoyl] benzamide]
[1]; [5]
  inhibition at 10 µM: 27.7 ± 2.38%
[2]; [6]
  inhibition at 10 µM: 16.6 ± 1.43%

## CC1(C)CCC(C)(C)c2c1cc1c(c2NC(=O)c2ccc(C(=O)Nc3ccccc3O)cc2)C(C)(C)CCC1(C)C [OAA-12, N-(2-hydroxyphenyl)-4[(1,1,4,4,5,5,8,8-octamethyl-1,2,3,4,5,6,7,8-octahydro-9-anthryl)carbamoyl] benzamide]
[1]; [5]
  inhibition at 10 µM: 25.1 ± 0.65%

## CC1(C)CCC(C)(C)c2c1cc1c(c2NC(=O)c2ccc(NC(=O)Nc3ccccc3O)cc2)C(C)(C)CCC1(C)C [OAB-10, 1-(2-hydroxyphenyl)-3-{4-[(1,1,4,4,5,5,8,8-octamethyl-1,2,3,4,5,6,7,8-octahydro-9-anthryl)carbamoyl]phenyl} urea]
[1]; [5]
  inhibition at 10 µM: 17.1 ± 0.93%
[2]; [6]
  inhibition at 10 µM: 7.21 ± 0.96%

## CC1(C)CCC(C)(C)c2c1cc1c(c2NC(=O)c2ccc(NC(=O)N3CCOCC3)cc2)C(C)(C)CCC1(C)C [OAB-3, 4-[(1,1,4,4,5,5,8,8-octamethyl-1,2,3,4,5,6,7,8-octahydro-9-anthryl)carbamoyl] phenylcarbamoyl-1-morpholine]
[1]; [5]
  inhibition at 10 µM: -0.89 ± 3.47%
[2]; [6]
  inhibition at 10 µM: 1.71 ± 5.44%

## C=C(c1ccc(C(=O)O)cc1)c1cc2c(cc1C)C(C)(C)CCC2(C)C [BEXA, bexarotene, reference compound]
APP/PS1 transgenic mice [3]; 100 mg/kg
  Nesting ability vs model group: significantly increased
APP/PS1 transgenic mice [4]; third and fourth days of training
  Escape latency vs model group: significantly reduced
APP/PS1 transgenic mice [4]; probe test
  Number of times traversing the safe platform vs model group: significantly increased
  Percentage of the swimming distance in the target quadrant vs model group: significantly increased
  Swimming time in the target quadrant vs model group: significantly increased
[1]; [7]
  inhibition at 10 µM: 6.41 ± 4.1%
[2]; HL-60, 48 h, read-out: IC50 against HL60 cells
  IC50: 6.31 ± 0.7 µM
[2]; [8]
  inhibition at 10 µM: 4 ± 1.14%
[2]; [9]
  inhibition at 0.01 µM: 16.5 ± 1.66%
  inhibition at 0.1 µM: 15.1 ± 1.44%
  inhibition at 1 µM: 65.5 ± 1.72%
  inhibition at 10 µM: 80.88 ± 0.63%

## CC1(C)CCC(C)(C)c2c1cc1c(c2NC(=O)c2ccc(NC(=O)NCCCO)cc2)C(C)(C)CCC1(C)C [OAB-18, 1-(3-hydroxy) propyl-3-{4-[(1,1,4,4,5,5,8,8-octamethyl-1,2,3,4,5,6,7,8-octahydro-9-anthryl)carbamoyl]phenyl} urea]
[1]; [5]
  inhibition at 10 µM: 4.32 ± 1.29%
[2]; [6]
  inhibition at 10 µM: 2.47 ± 2.64%

## COC(=O)c1ccc(C(=O)Nc2c3c(cc4c2C(C)(C)CCC4(C)C)C(C)(C)CCC3(C)C)cc1 [OAA-1, 4-[(1,1,4,4,5,5,8,8-octamethyl-1,2,3,4,5,6,7,8-octahydro-9-anthryl)carbamoyl] methyl Benzoate]
[1]; [5]
  inhibition at 10 µM: 7.11 ± 1.06%
[2]; [6]
  inhibition at 10 µM: 8.27 ± 1.57%

## CC1(C)CCC(C)(C)c2c1cc1c(c2NC(=O)c2ccc(NC(=O)ON)cc2)C(C)(C)CCC1(C)C [OAB-16, 4-[(1,1,4,4,5,5,8,8-octamethyl-1,2,3,4,5,6,7,8-octahydro-9-anthryl)carbamoyl] phenyl Carbamic Acid-O-Amino Ester]
[1]; [5]
  inhibition at 10 µM: 8.38 ± 2.31%
[2]; [6]
  inhibition at 10 µM: 1.67 ± 3.24%

## CC1(C)CCC(C)(C)c2c1cc1c(c2NC(=O)c2ccc(NC(=O)Nc3ccccc3N)cc2)C(C)(C)CCC1(C)C [OAB-4, 1-(2-aminophenyl)-3-{4-[(1,1,4,4,5,5,8,8-octamethyl-1,2,3,4,5,6,7,8-octahydro-9-anthryl)carbamoyl]phenyl} urea]
[1]; [5]
  inhibition at 10 µM: 34 ± 0.93%
[2]; [6]
  inhibition at 10 µM: 15.4 ± 1.16%

## CC1(C)CCC(C)(C)c2c1cc1c(c2NC(=O)c2ccc(NC(=O)NO)cc2)C(C)(C)CCC1(C)C [OAB-15, 1-hydroxy-3-{4-[(1,1,4,4,5,5,8,8-octamethyl-1,2,3,4,5,6,7,8-octahydro-9-anthryl)carbamoyl]phenyl} urea]
[1]; [5]
  inhibition at 10 µM: 2.3 ± 3.26%
[2]; [6]
  inhibition at 10 µM: 0.59 ± 1.44%

## CC1(C)CCC(C)(C)c2c1cc1c(c2NC(=O)c2ccc(C(=O)O)cc2)C(C)(C)CCC1(C)C [OAA-2, 4-[(1,1,4,4,5,5,8,8-octamethyl-1,2,3,4,5,6,7,8-octahydro-9-anthryl)carbamoyl] benzoic Acid]
[1]; [5]
  inhibition at 10 µM: -3.63 ± 1.07%
[2]; [6]
  inhibition at 10 µM: 3.06 ± 2.23%

## CC1(C)CCC(C)(C)c2c1cc1c(c2NC(=O)c2ccc(NC(=O)NCCCC(=O)O)cc2)C(C)(C)CCC1(C)C [OAB-7, 1-(4-carboxypropyl)-3-{4-[(1,1,4,4,5,5,8,8-octamethyl-1,2,3,4,5,6,7,8-octahydro-9-anthryl)carbamoyl]phenyl} urea]
[1]; [5]
  inhibition at 10 µM: 5.6 ± 3%
[2]; [6]
  inhibition at 10 µM: 1.76 ± 1.41%
